Assay [1] relates to P. falciparum Dd2 (PfDd2). The conditions noted are these: multi-drug resistant strain; cited from earlier work.
Assay [2] deals with P. falciparum 3D7 (Pf3D7). The conditions noted are these: CQ-sensitive strain; cited from earlier work.
For assay [3], the system named is P. falciparum 3D7 (Pf3D7). Briefly: In vitro drug sensitivity assay (HRP2-ELISA) against erythrocytic stage, CQ-sensitive strain. The assay is classed as cell-based. The note with it: Plasmodium falciparum, mean ± SD (n ≥ 2). As for the experimental part: Briefly, 96-well plates were pre-coated with the tested compounds in a three-fold dilution before ring-stage parasites were added to the complete culture medium at a haematocrit of 1.5% and a parasitaemia of 0.05%. […] All compounds were evaluated in duplicate in at least two independent experiments. The IC50 was determined by non-linear regression analysis of log concentration-response curves using the drc-package v0.9.0 of R v2.6.1 [42].
(An ELISA detects its analyte on a solid surface through an enzyme-linked reagent.)

Assay [4] relates to P. falciparum Dd2 (PfDd2). Briefly: microbe, parasite or virus in culture. It counts as cell-based. The note with it: Plasmodium falciparum, DD2, read-out: IC50 PfDd2. As for the experimental part: The resistance index (RI), which represents a ratio between IC50 obtained against PfDd2 and Pf3D7, was also calculated (Table 3).
Briefly, 96-well plates were pre-coated with the tested compounds in a three-fold dilution before ring-stage parasites were added to the complete culture medium at a haematocrit of 1.5% and a parasitaemia of 0.05%. After three days of incubation at 37 °C, 5% CO2, and 5% oxygen, plates were frozen until analysed by HRP2-ELISA. All compounds were evaluated in duplicate in at least two independent experiments. The IC50 was determined by non-linear regression analysis of log concentration-response curves using the drc-package v0.9.0 of R v2.6.1 [42].

For assay [5], the target named is T1, human serum albumin (HSA) (Homo sapiens, UniProt P02768). Briefly: Fluorimetric titration with HSA.
Experimental: (§3) The electronic absorption (UV/vis) spectra were recorded on a Varian Cary 100 Bio spectrophotometer (Varian, Inc., Palo Alto, CA, USA). Fluorescence measurements were performed on a Varian Cary Eclipse fluorimeter (Varian, Inc., CA, USA), taking care that the absorbance of a sample at the excitation wavelength was > 0.05 to avoid any impact of the inner filter effect.
(§4) Human serum albumin was purchased from Sigma-Aldrich (Sigma-Aldrich, St. Louis, MO, USA) supplier, and dissolved in milli Q (MQ) water.
(§5) Fluorimetric titration experiments were performed by adding aliquots of the polynucleotide stock solution into the solution of the studied dye. […] In both sets of experiments (fluorimetric and CD titrations), a buffer background was subtracted from each spectrum. Every reported spectrophotometric titration was the average of at least two measurements.
Assay [6] addresses poly(dAdT)2. The assay is classed as binding. The source says: (§1) The titration data are processed by a non-linear fitting procedure to the Scatchard equation [44, 45, 46], yielding binding constants (Supplemental Information, Figures S5–S12, Table 6).
(§2) Polynucleotides were purchased as noted: calf thymus (ct) DNA, poly dAdT–poly dAdT, poly dGdC–poly dGdC, and poly A–poly U (Sigma Aldrich, St. Louis, MO, USA), and dissolved in sodium cacodylate buffer (I = 0.05 M, pH = 7.0).

Assay [7] deals with calf thymus (ct)-DNA. It counts as binding. The conditions noted are these: for log Ks ctDNA: pH 7; for ΔInt ctDNA: ΔInt = Int(100% complex)/Int0.
Excerpt: as §1, §2

The target of assay [8] is T1, human serum albumin (HSA). Briefly: biochemical.
Experimental: as §3, §4, §5
For assay [9], the system named is HepG2 cells. Briefly: In vitro cytotoxicity, neutral red assay. It counts as cell-based. The note with it: Homo sapiens, HepG2, 24 h, one day of incubation, mean ± SD (n ≥ 2). As for the experimental part:
The cytotoxicity of the second-generation harmiquins 33–45 was assessed against HepG2 cells to determine the selectivity of the tested compounds towards P. falciparum in comparison to mammalian cells (Table 4).
Cytotoxicity against a human cell line (HepG2) was evaluated using the neutral red assay with minor modifications. In brief, human cells were seeded to a 96-well plate in a complete culture medium; on the following day, a serial dilution of the respective compound was added. After one day of incubation, cytotoxicity was evaluated by the addition of neutral red, subsequent lysis of cells, and measurement of absorbance (540 nm) in a plate reader (CLARIOstar, BMG Labtech). The IC50 was determined similarly to the in vitro drug assay against P. falciparum. To assess the safety of a compound, SI was calculated as the fractional ratio between the IC50s for HepG2 and P. falciparum 3D7 strain.

In assay [10] the target is poly A–poly U (pApU, ds-RNA). Briefly: Fluorimetric titration with poly A–poly U. It counts as binding. The method, then: The strong emission and favourable Stokes shift of emission maxima allowed the performance of fluorimetric titrations with ds-DNA/RNA at very low (5 µM) concentrations of investigated compounds.
as §1, §2

Molecules are shown by their SMILES. Several values for one entry are separate records, joined by “and”; a condition that tells them apart may be missing. Equal values may be shown once. Read-outs that look alike come from different tables or passages of the source. Marks after values point to notes of the source that are not given here.

T1 sequence (P02768 25-609): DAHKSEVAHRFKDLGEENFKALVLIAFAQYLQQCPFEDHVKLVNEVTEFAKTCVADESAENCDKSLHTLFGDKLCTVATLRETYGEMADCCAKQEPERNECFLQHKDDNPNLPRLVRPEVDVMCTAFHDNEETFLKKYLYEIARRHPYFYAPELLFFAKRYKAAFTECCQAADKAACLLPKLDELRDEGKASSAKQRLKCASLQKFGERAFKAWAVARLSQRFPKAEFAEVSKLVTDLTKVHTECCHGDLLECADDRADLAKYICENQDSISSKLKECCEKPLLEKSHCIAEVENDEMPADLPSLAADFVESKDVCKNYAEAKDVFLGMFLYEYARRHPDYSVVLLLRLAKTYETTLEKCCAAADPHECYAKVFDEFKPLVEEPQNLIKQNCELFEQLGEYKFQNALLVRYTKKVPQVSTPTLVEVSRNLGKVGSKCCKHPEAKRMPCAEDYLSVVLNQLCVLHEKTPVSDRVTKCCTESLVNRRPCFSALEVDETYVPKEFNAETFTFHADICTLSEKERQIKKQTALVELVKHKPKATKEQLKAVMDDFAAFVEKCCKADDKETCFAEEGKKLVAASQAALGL

As for `COc1ccc2c3ccnc(C)c3n(CCNC(=O)CNc3ccnc4cc(Cl)ccc34)c2c1` [A], the IC50 – broadly, the concentration that inhibits the measured activity by half – was 16.2 ± 2.83 nM in assay [1] and 2 ± 0.3 nM in assay [2].
As to `COc1ccc2c3ccnc(C)c3n(Cc3cn(CCNc4ccnc5cc(Cl)ccc45)nn3)c2c1` [B], the IC50 in [1] is 204 ± 9.89 nM; in [2] it was 11.6 ± 3.8 nM.
For the compound `CCOc1ccc2c3ccnc(C)c3n(CCNC(=O)CNc3ccnc4cc(Cl)ccc34)c2c1` [Compound 33, 2-((7-Chloroquinolin-4-yl)amino)-N-(2-(7-ethoxy-1-methyl-9H-pyrido[3,4-b]indol-9-yl)ethyl)acetamide], the values for the IC50 in assay [3] and in assay [4] were 4.7 ± 1.3 nM and 6.5 ± 2.5 nM, respectively.
In assay [3], `CCCOc1ccc2c3ccnc(C)c3n(CCNC(=O)CNc3ccnc4cc(Cl)ccc34)c2c1` [Compound 34, 2-((7-Chloroquinolin-4-yl)amino)-N-(2-(1-methyl-7-propoxy-9H-pyrido[3,4-b]indol-9-yl)ethyl)acetamide] had an IC50 of 11 ± 1.5 nM. Moreover, the “ΔInt HSA” value in [5] was “(62.8)”. For the same compound, in assay [6], the “log Ks toward AT-DNA and AU-RNA” value is reported as 4–5. In addition, in assay [6] (pH 7), the “log Ks p(dA-dT)2” value is listed as 5.2. In assay [6] (ΔInt = Int(100% complex)/Int0), the “ΔInt p(dA-dT)2” value is reported as “(2.28)”. In [7], the “log Ks toward GC-containing DNAs” value is 6–7, the “log Ks ctDNA” value was found to be 7.3 and the “ΔInt ctDNA” value was “(0.57)”. In addition, binding in assay [8] was put at a Kd of 794 nM. For the same compound, in [4], the concentration for half-maximal inhibition (IC50) was found to be 17.7 ± 8.7 nM. In assay [9], inhibition was half-maximal at 18200 ± 1800 nM (IC50). Moreover, the “log Ks pApU” value in [10] (estimation only, almost linear emission change, pH 7.0, sodium cacodylate buffer, I = 0.05 M) was >4 ^c.
For `Cc1nccc2c3ccc(OC(C)C)cc3n(CCNC(=O)CNc3ccnc4cc(Cl)ccc34)c12` [Compound 35, 2-((7-Chloroquinolin-4-yl)amino)-N-(2-(7-isopropoxy-1-methyl-9H-pyrido[3,4-b]indol-9-yl)ethyl)acetamide], the IC50 in assay [3] amounted to 28.1 ± 0.5 nM; in assay [4] it was 26.5 ± 4.5 nM; in [9] it was 127000 ± 31500 nM.
As for `COc1ccc2c(c1)c1ccnc(C)c1n2CCNC(=O)CNc1ccnc2cc(Cl)ccc12` [Compound 36, 2-((7-Chloroquinolin-4-yl)amino)-N-(2-(6-methoxy-1-methyl-9H-pyrido[3,4-b]indol-9-yl)ethyl)acetamide], the values for the concentration for half-maximal inhibition (IC50) in assay [3], in assay [4] and in assay [9] were 16.6 ± 2.1 nM, 36.7 ± 4 nM and 24300 ± 3400 nM, respectively.
With `CCCOc1ccc2c(c1)c1ccnc(C)c1n2CCNC(=O)CNc1ccnc2cc(Cl)ccc12` [Compound 37, 2-((7-Chloroquinolin-4-yl)amino)-N-(2-(1-methyl-6-propoxy-9H-pyrido[3,4-b]indol-9-yl)ethyl)acetamide], the IC50 amounted to 4.6 ± 0.6 nM in assay [3], 10.5 ± 0.4 nM in assay [4] and 35800 ± 4300 nM in assay [9].
For the compound `CCOc1ccc2c3ccnc(C)c3n(Cc3cn(CCNc4ccnc5cc(Cl)ccc45)nn3)c2c1` [Compound 38, 7-Chloro-N-(2-(4-((7-ethoxy-1-methyl-9H-pyrido[3,4-b]indol-9-yl)methyl)-1H-1,2,3-triazol-1-yl)ethyl)quinolin-4-amine], the IC50 in assay [3] is 18.7 ± 4.7 nM; in assay [4], 82.2 ± 2.2 nM; in assay [9] it was 29600 ± 6000 nM.
On to `CCCOc1ccc2c3ccnc(C)c3n(Cc3cn(CCNc4ccnc5cc(Cl)ccc45)nn3)c2c1` [Compound 39, 7-Chloro-N-(2-(4-((1-methyl-7-propoxy-9H-pyrido[3,4-b]indol-9-yl)methyl)-1H-1,2,3-triazol-1-yl)ethyl)quinolin-4-amine], for which the IC50 in assay [3] stood at 6.8 ± 4 nM. In addition, the “emission response to AT-DNA” value in [6] was “completely insensitive”. Further, in assay [7], the “log Ks toward GC-containing DNAs” value is on record as 4–5, the “log Ks ctDNA” value is given as 5.5 and the “ΔInt ctDNA” value is on record as “(0.59)”. In assay [8], the Kd (as a rule, the free concentration of one partner at which half of the binding sites on the other are occupied at equilibrium, for simple one-to-one binding) was 6310 nM and 7940 nM. The IC50 in [4] came out at 20.1 ± 2.2 nM. Also, in [9], half-maximal inhibition (IC50) was put at 14400 ± 1700 nM. For the same compound, the “emission response to AU-RNA” value in [10] (compound 5 µM, fluorimetric titration) is “completely insensitive”.
Take `Cc1nccc2c3ccc(OC(C)C)cc3n(Cc3cn(CCNc4ccnc5cc(Cl)ccc45)nn3)c12` [Compound 40, 7-Chloro-N-(2-(4-((7-isopropoxy-1-methyl-9H-pyrido[3,4-b]indol-9-yl)methyl)-1H-1,2,3-triazol-1-yl)ethyl)quinolin-4-amine]: the IC50 in assay [3] stood at 25 ± 3.3 nM; in assay [4], 33.3 ± 1.6 nM; in assay [9], 26900 ± 900 nM.
For the compound `COc1ccc2c(c1)c1ccnc(C)c1n2Cc1cn(CCNc2ccnc3cc(Cl)ccc23)nn1` [Compound 41, 7-Chloro-N-(2-(4-((6-methoxy-1-methyl-9H-pyrido[3,4-b]indol-9-yl)methyl)-1H-1,2,3-triazol-1-yl)ethyl)quinolin-4-amine], the IC50 came out at 18.5 ± 6.1 nM in [3], 98.7 ± 36.3 nM in assay [4] and 32100 ± 1100 nM in [9].
In the same order, the values of `CCCOc1ccc2c(c1)c1ccnc(C)c1n2Cc1cn(CCNc2ccnc3cc(Cl)ccc23)nn1` [Compound 42, 7-Chloro-N-(2-(4-((1-methyl-6-propoxy-9H-pyrido[3,4-b]indol-9-yl)methyl)-1H-1,2,3-triazol-1-yl)ethyl)quinolin-4-amine] are 7.6 ± 0.2 nM, 15.5 ± 1.7 nM and 20300 ± 1600 nM.
In the case of `CCc1nccc2c3ccccc3n(Cc3cn(CCNc4ccnc5cc(Cl)ccc45)nn3)c12` [Compound 43, 7-Chloro-N-(2-(4-((1-ethyl-9H-pyrido[3,4-b]indol-9-yl)methyl)-1H-1,2,3-triazol-1-yl)ethyl)quinolin-4-amine], the IC50 in assay [3] was 88.4 ± 0.5 nM; in assay [4] it was 204 ± 73.2 nM; in [9] it was 68200 ± 6100 nM.
In the same order, the values of `CCCc1nccc2c3ccccc3n(Cc3cn(CCNc4ccnc5cc(Cl)ccc45)nn3)c12` [Compound 44, 7-Chloro-N-(2-(4-((1-propyl-9H-pyrido[3,4-b]indol-9-yl)methyl)-1H-1,2,3-triazol-1-yl)ethyl)quinolin-4-amine] are 96.9 ± 1.5 nM, 214 ± 71.8 nM and 68900 ± 4300 nM.
Regarding `CC(C)c1nccc2c3ccccc3n(Cc3cn(CCNc4ccnc5cc(Cl)ccc45)nn3)c12` [Compound 45, 7-Chloro-N-(2-(4-((1-isopropyl-9H-pyrido[3,4-b]indol-9-yl)methyl)-1H-1,2,3-triazol-1-yl)ethyl)quinolin-4-amine], the IC50 in [3] stood at 15.9 ± 11.5 nM; in [4], 18.8 ± 9.1 nM; in assay [9], 128000 ± 2700 nM.
